The test system of series [1] is Monocyte-derived dendritic cells. It is filed as cell-based, human.
A further series has as its system HeLa cells. Nature of the series: Cellular uptake of fluorescent-labeled peptide vaccines, fluorescent microscopy. It is filed as cell-based, human. On the procedure:
Methods: In this experiment, the uptake of two fluorescent-labeled peptide vaccines was examined using a fluorescent microscope in cultured cells. HeLa cells were grown on cover slides for one day and then treated with peptide vaccines. Cells were fixed with 4% paraformaldehyde, washed with PBS, and analyzed with fluorescent microscopy.

The subject of series [2] is peritoneal tumour biopsies. Nature of the series: Transcriptome analysis of the Murcia patient's peritoneal tumour biopsies. To be noted: target of 2nd generation personalized vaccines.
Text: All the putative 8-20 amino acids long epitopes were created from these proteins and used for designing the 2nd generation of personalized vaccines according to the invention. […] These antigens have different length and amino acid sequences. All selected peptide antigen contains multiple highly ranked epitopes (13-66) presented on the cell surface by the patient's HLA class I and class II molecules. The range of the potency score is indicated for the selected epitopes. Epitopes presented by the patient's HLA class I and class II molecules are indicated to induce CD8 and CD4 responses, respectively. As described in the invention, the potency of each epitope in the vaccines was calculated and indicated to inform the physician about the predicted efficacy of the personalised vaccines in the recipient.

“Also recorded” adds a separate entry of the source. Where no end group is shown, it is not given here.

For “Fluoresc-KSS-QYIKANSKFIGITE-RRRRRRRR-LNVPMVATV (fluorescein-KSSQYIKANSKFIGITERRRRRRRRLNVPMVATV)”, the “uptake in dendritic cells compared to the control vaccines” value in series [1] is reported as “substantial increase in the uptake; also recorded: exceptional uptake”.

In the case of “Fluoresc-KSSQYIKANSKFIGITEAAALNVPMVATV-NH2 (fluorescein-KSSQYIKANSKFIGITEAAALNVPMVATV-NH2) [peptide vaccines (CD4-CD8), control peptide vaccine lacking the R8 component, reference compound]”, in the series with HeLa cells (120 minutes), the cellular uptake entry is “poorly detectable cellular uptake”.

As for “Fluoresc-KSSQYIKANSKFIGITERRRRRRRRLNVPMVATV-NH2 (fluorescein-KSSQYIKANSKFIGITERRRRRRRRLNVPMVATV-NH2) [vaccine (CD4-R8-CD8)]”, the cellular uptake entry in the series with HeLa cells (120 minutes) is “diffuse distribution throughout the cytoplasm and nucleus”; with HeLa cells (within 30 minutes), “rapid uptake into both the cytoplasm and nucleus”. Besides, the “cellular uptake compared to the control vaccines” value in the series with HeLa cells (after 30 minutes and 120 minutes of incubation) was “substantial increase in the uptake”.

B1: ATAD2 (protein, UniProt Q6PL18 1-1390, looked up)
ATPase family AAA …: MVVLRSSLELHNHSAASATGSLDLSSDFLSLEHIGRRRLRSAGAAQKKPAATTAKAGDGSSVKEVETYHRTRALRSLRKDAQNSSDSSFEKNVEITEQLANGRHFTRQLARQQADKKKEEHREDKVIPVTRSLRARNIVQSTEHLHEDNGDVEVRRSCRIRSRYSGVNQSMLFDKLITNTAEAVLQKMDDMKKMRRQRMRELEDLGVFNETEESNLNMYTRGKQKDIQRTDEETTDNQEGSVESSEEGEDQEHEDDGEDEDDEDDDDDDDDDDDDDDEDDEDEEDGEEENQKRYYLRQRKATVYYQAPLEKPRHQRKPNIFYSGPASPARPRYRLSSAGPRSPYCKRMNRRRHAIHSSDSTSSSSSEDEQHFERRRKRSRNRAINRCLPLNFRKDELKGIYKDRMKIGASLADVDPMQLDSSVRFDSVGGLSNHIAALKEMVVFPLLYPEVFEKFKIQPPRGCLFYGPPGTGKTLVARALANECSQGDKRVAFFMRKGADCLSKWVGESERQLRLLFDQAYQMRPSIIFFDEIDGLAPVRSSRQDQIHSSIVSTLLALMDGLDSRGEIVVIGATNRLDSIDPALRRPGRFDREFLFSLPDKEARKEILKIHTRDWNPKPLDTFLEELAENCVGYCGADIKSICAEAALCALRRRYPQIYTTSEKLQLDLSSINISAKDFEVAMQKMIPASQRAVTSPGQALSTVVKPLLQNTVDKILEALQRVFPHAEFRTNKTLDSDISCPLLESDLAYSDDDVPSVYENGLSQKSSHKAKDNFNFLHLNRNACYQPMSFRPRILIVGEPGFGQGSHLAPAVIHALEKFTVYTLDIPVLFGVSTTSPEETCAQVIREAKRTAPSIVYVPHIHVWWEIVGPTLKATFTTLLQNIPSFAPVLLLATSDKPHSALPEEVQELFIRDYGEIFNVQLPDKEERTKFFEDLILKQAAKPPISKKKAVLQALEVLPVAPPPEPRSLTAEEVKRLEEQEEDTFRELRIFLRNVTHRLAIDKRFRVFTKPVDPDEVPDYVTVIKQPMDLSSVISKIDLHKYLTVKDYLRDIDLICSNALEYNPDRDPGDRLIRHRACALRDTAYAIIKEELDEDFEQLCEEIQESRKKRGCSSSKYAPSYYHVMPKQNSTLVGDKRSDPEQNEKLKTPSTPVACSTPAQLKRKIRKKSNWYLGTIKKRRKISQAKDDSQNAIDHKIESDTEETQDTSVDHNETGNTGESSVEENEKQQNASESKLELRNNSNTCNIENELEDSRKTTACTELRDKIACNGDASSSQIIHISDENEGKEMCVLRMTRARRSQVEQQQLITVEKALAILSQPTPSLVVDHERLKNLLKTVVKKSQNYNIFQLENLYAVISQCIYRHRKDHDKTSLIQKMEQEVENFSCSR
As for B1, the Relative expression in series [2] turned out to be 9.

B2: ODF2 (protein, UniProt Q5BJF6 1-829, looked up)
Outer dense fiber protein 2: MSASSSGGSPRFPSCGKNGVTSLTQKKVLRAPCGAPSVTVTKSHKRGMKGDTVNVRRSVRVKTKVPWMPPGKSSARPVGCKWENPPHCLEITPPSSEKLVSVMRLSDLSTEDDDSGHCKMNRYDKKIDSLMNAVGCLKSEVKMQKGERQMAKRFLEERKEELEEVAHELAETEHENTVLRHNIERMKEEKDFTILQKKHLQQEKECLMSKLVEAEMDGAAAAKQVMALKDTIGKLKTEKQMTCTDINTLTRQKELLLQKLSTFEETNRTLRDLLREQHCKEDSERLMEQQGALLKRLAEADSEKARLLLLLQDKDKEVEELLQEIQCEKAQAKTASELSKSMESMRGHLQAQLRSKEAENSRLCMQIKNLERSGNQHKAEVEAIMEQLKELKQKGDRDKESLKKAIRAQKERAEKSEEYAEQLHVQLADKDLYVAEALSTLESWRSRYNQVVKEKGDLELEIIVLNDRVTDLVNQQQTLEEKMREDRDSLVERLHRQTAEYSAFKLENERLKASFAPMEDKLNQAHLEVQQLKASVKNYEGMIDNYKSQVMKTRLEADEVAAQLERCDKENKILKDEMNKEIEAARRQFQSQLADLQQLPDILKITEAKLAECQDQLQGYERKNIDLTAIISDLRSRIEHQGDKLEMAREKHQASQKENKQLSLKVDELERKLEATSAQNIEFLQVIAKREEAIHQSQLRLEEKTRECGTLARQLESAIEDARRQVEQTKEHALSKERAAQNKILDLETQLSRTKTELSQLRRSRDDADRRYQSRLQDLKDRLEQSESTNRSMQNYVQFLKSSYANVFGDGPYSTFLTSSPIRSRSPPA
On to B2, for which the Relative expression in series [2] is 19.
